From patent US11773084B1, “4-arylamino-2-(6-indolylamino)pyrimidine compounds as antibacterial agents” (KING FAISAL UNIVERSITY, priority 2023, dated 2023) come the findings set out here.

Values after ≈ are worked out from the molar mass of the structure shown. Read-outs that look alike come from different tables or passages of the source. Bounds are passed on as bounds.

The subject of assay [1] is Staphylococcus epidermidis. Put plainly: In vitro antibacterial activity (CLSI M07-A10 dilution MIC). Type of assay: cell-based.
The test system of assay [2] is Mycobacterium tuberculosis H37Rv strain. Put plainly: Anti-tubercular alamar blue microplate MIC assay. Type of assay: cell-based. The settings on record: seven days 37° C. Background: The colour change of resazurin is a common sign of viable cells or microbes.
In assay [3] the test system is Klebsiella pneumonia MTCC 618. Put plainly: In vitro antibacterial activity (CLSI M07-A10 dilution MIC). It is filed as cell-based. To be noted: Klebsiella pneumoniae, MTCC618.
Assay [4] relates to Staphylococcus aureus ATCC 29213. The description is as above. To be noted: ATCC29213. Type of assay: cell-based.
Assay [5] relates to Enterococcus faecium ATCC 51559 (VRE resistant). Described as above. It is filed as cell-based.
In assay [6] the test system is Bacillus subtilis MTCC 441. The assay is described as above. It is filed as cell-based. To be noted: MTCC441.
Assay [7] concerns Enterococcus faecium ATCC 35667. Described as above. It is filed as cell-based. To be noted: ATCC35667.
A further assay concerns the target T1, DNA gyrase from E. coli (Escherichia coli, UniProt P0AES4+P0AES6).
T1 construct: purchased Inspiralis
Put plainly: E. coli DNA gyrase inhibition (Inspiralis assay). It is filed as biochemical. The procedure:
First, the plates were rehydrated with buffer (20 mM Tris-HCl with pH 7.6, 0.01% w/v BSA, 0.05% v/v Tween 20, 137 mM NaCl) and the biotinylated oligonucleotide was then immobilized. After washing off the unbound oligonucleotide, the enzyme test was performed. […] Reaction solutions were incubated at 37° C. for 30 min. After that, the TF buffer (50 mM NaOAc with pH 5.0, 50 mM NaCl and 50 mM MgCl2) was added to terminate the enzymatic reaction. After additional incubation for 30 min at rt, during which biotinoligonucleotide-plasmid triplex was formed, the unbound plasmid was washed off using TF buffer and SybrGOLD in T10 buffer (10 mM Tris HCl with pH 8.0 and 1 mM EDTA) was added. The fluorescence was measured with a microplate reader (BioTek Synergy H4, excitation: 485 nm, emission: 535 nm). […] GraphPad Prism software was used to calculate the IC50 values. The result is given as the average value of three independent measurements.

The test system of assay [8] is Staphylococcus aureus ATCC BAA-1556 (MERSA resistant). Put plainly: In vitro antibacterial activity (CLSI M07-A10 dilution MIC). Type of assay: cell-based. The settings on record: ATCCBAA1556.
In assay [9] the test system is Escherichia coli MTCC 443. Described as above. Type of assay: cell-based.
The mark [10] stands for this setting: Escherichia coli MTCC 443 + PABN.

T1 sequence (P0AES4 whole entry, one chain of several): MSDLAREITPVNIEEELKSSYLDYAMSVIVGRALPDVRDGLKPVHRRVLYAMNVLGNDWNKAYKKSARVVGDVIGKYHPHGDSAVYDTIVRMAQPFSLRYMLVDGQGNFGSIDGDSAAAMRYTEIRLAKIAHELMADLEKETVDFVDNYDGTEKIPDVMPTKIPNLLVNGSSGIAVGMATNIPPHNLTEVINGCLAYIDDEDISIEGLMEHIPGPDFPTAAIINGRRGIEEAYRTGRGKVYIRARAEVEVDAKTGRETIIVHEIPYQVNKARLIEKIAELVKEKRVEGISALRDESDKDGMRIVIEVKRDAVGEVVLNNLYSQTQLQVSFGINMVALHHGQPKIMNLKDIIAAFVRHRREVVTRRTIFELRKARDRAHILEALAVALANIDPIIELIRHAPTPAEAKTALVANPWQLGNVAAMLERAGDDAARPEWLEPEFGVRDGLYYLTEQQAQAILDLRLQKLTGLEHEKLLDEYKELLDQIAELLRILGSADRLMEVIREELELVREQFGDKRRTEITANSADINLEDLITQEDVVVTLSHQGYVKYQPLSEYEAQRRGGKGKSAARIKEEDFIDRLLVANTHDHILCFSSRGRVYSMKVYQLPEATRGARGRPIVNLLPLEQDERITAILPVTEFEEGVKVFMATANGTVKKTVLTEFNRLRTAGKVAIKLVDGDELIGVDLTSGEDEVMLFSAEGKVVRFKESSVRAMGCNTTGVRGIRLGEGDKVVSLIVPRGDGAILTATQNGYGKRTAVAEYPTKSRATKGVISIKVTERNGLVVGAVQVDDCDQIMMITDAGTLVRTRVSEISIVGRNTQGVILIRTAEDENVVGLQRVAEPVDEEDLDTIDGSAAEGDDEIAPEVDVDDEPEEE

One may read the MIC as the lowest concentration that inhibits growth of the organism. What is called IC50 is the midpoint of a concentration-inhibition curve. On to `CCCCCN(C)Cc1cc(C(=O)O)ccc1Nc1ccnc(Nc2ccc3cc(C)[nH]c3c2)n1` [Example 8, 3-((methyl(pentyl)amino)methyl)-4-((2-((2-methyl-1H-indol-6-yl)amino)pyrimidin-4-yl)amino)benzoic acid], for which the MIC in assay [1] (read-out: MIC) worked out at 8 µg/mL (≈ 16.9 µM); in assay [3] (Klebsiella pneumonia MTCC 618, read-out: MIC), 2 µg/mL (≈ 4.23 µM); in [4] (Staphylococcus aureus ATCC 29213, read-out: MIC), 4 µg/mL (≈ 8.46 µM); in assay [5] (Enterococcus faecium ATCC 51559 (VRE resistant), read-out: MIC) it was 4 µg/mL (≈ 8.46 µM); in [6] (Bacillus subtilis MTCC 441, read-out: MIC) it was 2 µg/mL (≈ 4.23 µM); in assay [7] (Enterococcus faecium ATCC 35667, read-out: MIC), 2 µg/mL (≈ 4.23 µM). Besides, the minimum inhibitory concentration (MIC) came out at 4 µg/mL (≈ 8.46 µM) in assay [8] (Staphylococcus aureus ATCC BAA-1556 (MERSA resistant), read-out: MIC); 2 µg/mL in assay [9] (setting [10]); 32 µg/mL (≈ 67.7 µM) in [9] (MTCC443, Escherichia coli MTCC 443, read-out: MIC). Also, in assay [2], the “anti-mycobacterial activity (MIC)” value amounted to 8 micro-g/mL. Further, at DNA gyrase from E. coli, the half-maximal inhibitory concentration (IC50) came out at 315 nM.

As for `CN[C@H](CC(C)C)C(=O)N[C@H]1C(=O)N[C@@H](CC(N)=O)C(=O)N[C@H]2C(=O)N[C@H]3C(=O)N[C@H](C(=O)N[C@H](C(=O)O)c4cc(O)cc(O)c4-c4cc3ccc4O)[C@H](O)c3ccc(c(Cl)c3)Oc3cc2cc(c3O[C@@H]2O[C@H](CO)[C@@H](O)[C@H](O)[C@H]2O[C@H]2C[C@](C)(N)[C@H](O)[C@H](C)O2)Oc2ccc(cc2Cl)[C@H]1O` [Vancomycin, reference compound], the MIC in assay [1] was 1 µg/mL (≈ 0.69 µM); in assay [3] it was over 128 µg/mL; in assay [4] (Staphylococcus aureus) it was 1 µg/mL (≈ 0.69 µM); in [5] (Enterococcus faecium), over 128 µg/mL; in assay [6] (Bacillus subtilis) it was 0.5 µg/mL (≈ 0.345 µM); in assay [7] (Enterococcus faecium), 0.5 µg/mL (≈ 0.345 µM). In addition, the minimum inhibitory concentration (MIC) in assay [8] (Staphylococcus aureus) was 1 µg/mL (≈ 0.69 µM); in [9] (setting [10]) it was over 128 µg/mL; in assay [9] (Escherichia coli, MTCC443), over 128 µg/mL.
